Source: article PMC12016938, “A small molecule PKCε inhibitor reduces hyperalgesia induced by paclitaxel or opioid withdrawal” (JCI Insight, 2025)
“And” between values parts separate entries of the source, which are not always exact repeats. Equal entries are not always repeated. Where two headings read alike, the source gives them in different places.

What was measured:
[1] = test system: hyperalgesia induced by morphine withdrawal; assay: Reversal of hyperalgesia due to morphine withdrawal, von Frey SUDO; type: in vivo, C57BL/6J mice
Text: We next tested if CP612 reverses hyperalgesia induced by withdrawal from repeated administration of morphine in male and female C57BL/6J mice. Since the pain thresholds of mice receiving repeated administration of saline were not affected by treatment with vehicle or CP612 injection (Figure 6), mice in this experiment were only treated with morphine. […] Both male and female mice that received vehicle continued to show hyperalgesia up to 4 weeks after the last injection of morphine.

[2] = test system: paclitaxel-induced hyperalgesia; assay: Paclitaxel-induced hyperalgesia, Randall-Selitto paw pressure test; details: for Force applied that led to paw withdrawal: one paw
Protocol: We tested if CP612 reverses this hyperalgesia. Male rats received repeated injections of paclitaxel (1 mg/kg, i.p. on days 1, 3, 5, and 7). Twenty-four hours after the last dose of paclitaxel, rats were administered vehicle (2 mL/kg, i.p.) or CP612 (20 mg/kg, i.p.).
Mechanical nociceptive thresholds in rats were quantified by the Randall-Selitto paw pressure test using an Ugo Basile Analgesy-Meter. This device applies a linearly increasing mechanical force to the dorsum or plantar region of the rat hind paw. The mechanical nociceptive threshold is defined as the force in grams at which a rat withdraws its paw. The higher the force to elicit paw withdrawal, the higher the pain threshold (and the lower the sensitivity to pain). For studies testing nociceptive thresholds after the PKCε activator ψεRACK, or after the cancer chemotherapeutic drug paclitaxel, rats were placed into cylindrical acrylic restrainers for 40 minutes before starting each session. The restrainers had lateral ports to allow access to the hind paw, as previously described ([35]), and pain thresholds were measured by applying force to the dorsum of the hind paw. Prior to starting experiments, baseline mechanical nociceptive threshold was obtained as the mean of 2–3 readings on 1 hind paw in each rat.

[3] = Plasma protein binding, equilibrium dialysis (RED); type: in vitro ADME, human; details: for recovery at 4 h, 10 µM: Rapid Equilibrium Dialysis (RED) device
Protocol: Plasma protein binding. Binding of CP612 to human plasma proteins was measured by equilibrium dialysis using a Rapid Equilibrium Dialysis (RED) Device (Thermo Fisher Scientific). The device uses plates with wells preloaded with equilibrium dialysis membrane inserts, each of which includes 2 side-by-side chambers separated by a dialysis membrane. […] All compounds were tested in triplicate. […] A total of 200 μL of diluted test compound was then added to the plasma chambers of triplicate wells of a 48-sample RED plate (Thermo Fisher Scientific). In total, 400 μL of 0.1M PBS buffer were added to each buffer chamber. The plate was sealed with adhesive foil and incubated at 37°C with shaking for 4 hours, after which 30 μL were removed from each chamber and diluted with either 30 μL of plasma (for buffer chamber samples) or 30 μL of 0.1M PBS (for plasma chamber samples). Samples were extracted with 3 volumes of acetonitrile, centrifuged at 16,000g at 4°C for 10 minutes, and analyzed by LC-MS to calculate the amount of drug in each chamber. The percentage of free compound was calculated as the concentration in the buffer chamber/concentration in the plasma chamber × 100%. The percentage of protein-bound compound was calculated as 100% – the percentage of free compound.

[4] = test system: morphine self-administration;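 further: rats trained to self-administer intravenous morphine at 500 µg/kg per infusion, first under FR1 then FR3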

## N[C@H](CNC(=O)C1(c2ccc(Cl)cc2)CCCC1)c1ccc(C(=O)Nc2ccncc2)cc1 [CP612]
[1]; male and female mice, CP612 20 mg/kg i.p. 2 weeks after last morphine injection
  Effect on established morphine-withdrawal hyperalgesia: reversed
[1]; single dose CP612 20 mg/kg i.p.
  Duration of reversal of hyperalgesia: 2 weeks
[2]; 0min (24 h after last paclitaxel, before CP612)
  Force applied that led to paw withdrawal: 95 grams and 102.5 grams and 100 grams and 97.5 grams and 101.7 grams
[2]; 15min after CP612 20 mg/kg intraperitoneally, 20 mg/kg
  Force applied that led to paw withdrawal: 120 grams and 125 grams and 110 grams and 115 grams and 117.5 grams
[2]; 30min after CP612 20 mg/kg intraperitoneally, 20 mg/kg
  Force applied that led to paw withdrawal: 110 grams and 122.5 grams and 117.5 grams and 112.5 grams
[2]; 60min after CP612 20 mg/kg intraperitoneally, 20 mg/kg
  Force applied that led to paw withdrawal: 111.7 grams and 120 grams and 116.7 grams and 113.3 grams and 121.7 grams
[2]; 120min after CP612 20 mg/kg intraperitoneally, 20 mg/kg
  Force applied that led to paw withdrawal: 101.7 grams and 116.7 grams and 111.7 grams and 103.3 grams and 96.7 grams and 115 grams
[2]; 24h after CP612 20 mg/kg intraperitoneally, 20 mg/kg
  Force applied that led to paw withdrawal: 85 grams and 116.7 grams and 90 grams and 91.7 grams and 96.7 grams
[2]; baseline (before paclitaxel and CP612)
  Force applied that led to paw withdrawal: 127.5 grams and 125 grams and 140 grams
[2]; male rats, CP612 20 mg/kg i.p., 15, 30, 60 and 120 minutes
  Effect on paclitaxel-induced hyperalgesia: attenuated
[2]; male rats, CP612 20 mg/kg i.p., 24 hours
  Decrease in paclitaxel-induced hyperalgesia 1 day after CP612: dissipated
[3]; (Corrected concentration in PBS / Corrected concentration in Plasma) * 100, individual replicates
  % Free: 9.57% and 8.99%
[3]; PBS + Plasma relative to starting concentration of 10 uM, individual replicates
  % Recovery: 52.74% and 59.65%
[3]; PBS compartment, relative to starting concentration of 10 uM, individual replicates
  % Absolute (Sample_PBS): 6.46% and 4.60% and 4.92%
[3]; human plasma, individual replicates, read-out: % Bound (converted)
  fraction unbound at 4 h, 10 μM: 0.121
[3]; human, human plasma, 37°C, 4 hours, read-out: Plasma protein binding (% bound) (converted)
  fraction unbound at 4 h, 10 μM: 0.102
[3]; human, human plasma, PBS + Plasma relative to starting concentration of 10 uM, individual replicates, read-out: % Recovery
  recovery at 4 h, 10 µM: 59.9%
[3]; human, human plasma, PBS + Plasma relative to starting concentration of 10 uM, mean of replicates, read-out: % Recovery, Mean
  recovery at 4 h, 10 µM: 57.4%
[3]; human, plasma, (Corrected concentration in PBS / Corrected concentration in Plasma) * 100, individual replicates, read-out: % Free
  fraction unbound at 4 h, 10 μM: 0.121
[3]; human, plasma, mean of replicates, read-out: % Bound, Mean (converted)
  fraction unbound at 4 h, 10 μM: 0.102
[3]; human, plasma, mean of replicates, read-out: % Free, Mean
  fraction unbound at 4 h, 10 μM: 0.102
[3]; individual replicates
  % Bound: 90.43% and 91.01%
[3]; plasma compartment, relative to starting concentration of 10 uM, individual replicates
  % Absolute (Sample_Plasma): 53.46% and 48.13% and 54.72%
[4]; BP, Day 10, progressive ratio PR1, CP612 6 hours prior, group mean, n=7
  D10 BP (PR1): 25.57
[4]; BP, Day 12, progressive ratio PR2 withdrawal, CP612 6 hours prior, group mean, n=6
  D12 BP (PR2_WD): 21.67
[4]; BP, Day 13, progressive ratio PR3_Nal, CP612 6 hours prior, group mean, n=7
  D13 BP (PR3_Nal): 17.57
[4]; BP, PR2_WD, day 12, individual rats
  D12 BP (PR2_WD): 40 and 15 and 20
[4]; CP612 30 mg/kg i.p. 6 hours prior, progressive ratio tests 1-3
  Effect on morphine intake or responding (infusions and breaking point): did not modify morphine intake or responding
[4]; active hole responses, Day 1, fixed ratio 1, mean of CP612 group, n=7
  D1 AH (FR1): 16.14
[4]; active hole responses, Day 2, fixed ratio 1, mean of CP612 group, n=7
  D2 AH (FR1): 13.86
[4]; active hole responses, Day 3, fixed ratio 1, mean of CP612 group, n=7
  D3 AH (FR1): 16.29
[4]; active hole responses, Day 4, fixed ratio 1, mean of CP612 group, n=7
  D4 AH (FR1): 14.57
[4]; active hole responses, Day 4, fixed ratio 3, mean of CP612 group, n=7
  D4 AH (FR3): 14.57
[4]; active hole responses, Day 5, fixed ratio 3, mean of CP612 group, n=7
  D5 AH (FR3): 25.86
[4]; active hole responses, Day 6, fixed ratio 3, mean of CP612 group, n=7
  D6 AH (FR3): 25.71
[4]; active hole responses, Day 7, fixed ratio 3, mean of CP612 group, n=7
  D7 AH (FR3): 27.86
[4]; active hole responses, Day 8, fixed ratio 3, mean of CP612 group, n=7
  D8 AH (FR3): 35.00
[4]; active hole responses, Day 9, fixed ratio 3, mean of CP612 group, n=7
  D9 AH (FR3): 37.86
[4]; active hole responses, Day 10, PR1, CP612 6 hours prior, group mean, n=7
  D10 AH (PR1): 119.00
[4]; active hole responses, Day 12, PR2 withdrawal, CP612 6 hours prior, group mean, n=6
  D12 AH (PR2_WD): 99.33
[4]; active hole responses, Day 13, PR3_Nal, CP612 6 hours prior, group mean, n=7
  D13 AH (PR3_Nal): 78.29
[4]; active hole responses, average of all days D1-D9, mean of CP612 group, n=7
  AH (avg all): 23.68
[4]; active hole responses, average of last 3 days, mean of CP612 group, n=7
  AH (avg last 3 days): 33.57
[4]; inactive hole responses, Day 1, fixed ratio 1, mean of CP612 group, n=7
  D1 IH (FR1): 7.43
[4]; inactive hole responses, Day 2, fixed ratio 1, mean of CP612 group, n=7
  D2 IH (FR1): 12.14
[4]; inactive hole responses, Day 3, fixed ratio 1, mean of CP612 group, n=7
  D3 IH (FR1): 12.43
[4]; inactive hole responses, Day 4, fixed ratio 1, mean of CP612 group, n=7
  D4 IH (FR1): 8.71
[4]; inactive hole responses, Day 4, fixed ratio 3, mean of CP612 group, n=7
  D4 IH (FR3): 8.71
[4]; inactive hole responses, Day 5, fixed ratio 3, mean of CP612 group, n=7
  D5 IH (FR3): 13.86
[4]; inactive hole responses, Day 6, fixed ratio 3, mean of CP612 group, n=7
  D6 IH (FR3): 7.43
